Patent US20200002283A1, “PYRAZOLE DERIVATIVES HAVING ACTIVITY AGAINST PAIN” (priority 2016, published 2020)
Where two headings read alike, the source gives them in different places.

Key:
[1] = target: Human α2δ-1 subunit of Cav2.2 calcium channel (Homo sapiens, UniProt P54289); test: Human α2δ-1 subunit of Cav2.2 calcium channel assay ([3H]-Gabapentin binding)
Protocol: Human α2δ-1 Subunit of Cav2.2 Calcium Channel Assay
Human α2δ-1 enriched membranes (2.5 μg) were incubated with 15 nM of radiolabeled [3H]-Gabapentin in assay buffer containing Hepes-KOH 10 mM, pH 7.4. NSB (non specific binding) was measured by adding 10 μM pregabalin. After 60 min incubation at 27° C., binding reaction was terminated by filtering through Multiscreen GF/C (Millipore) presoaked in 0.5% polyethyleneimine in Vacuum Manifold Station, followed by 3 washes with ice-cold filtration buffer containing 50 mM Tris-HCl, pH 7.4. Filter plates were dried at 60° C. for 1 hour and 30 μl of scintillation cocktail were added to each well before radioactivity reading. Readings were performed in a Trilux 1450 Microbeta radioactive counter (Perkin Elmer).

human μ-opioid receptor = target: T1, human μ-opioid receptor (Homo sapiens, UniProt P35372); test: Human μ-opioid receptor radioligand assay ([3H]-DAMGO); format: binding
T1 construct: expressed in transfected cells; host or cells: CHO-K1
Protocol: Human μ-Opioid Receptor Radioligand Assay
To investigate binding properties of test compounds to human μ-opioid receptor, transfected CHO-K1 cell membranes and [^3H]-DAMGO (Perkin Elmer, ES-542-C), as the radioligand, were used. The assay was carried out with 20 μg of membrane suspension, 1 nM of [^3H]-DAMGO in either absence or presence of either buffer or 10 μM Naloxone for total and non-specific binding, respectively. Binding buffer contained Tris-HCl 50 mM, MgCl2 5 mM at pH 7.4. Plates were incubated at 27° C. for 60 minutes. After the incubation period, the reaction mix was then transferred to MultiScreen HTS, FC plates (Millipore), filtered and plates were washed 3 times with ice-cold 10 mM Tris-HCL (pH 7.4). Filters were dried and counted at approximately 40% efficiency in a MicroBeta scintillation counter (Perkin-Elmer) using EcoScint liquid scintillation cocktail.

[2] = human α2δ-1 enriched membranes, 15 nM [3H]-Gabapentin, read-out: α2δ-1 binding
[3] = transfected CHO-K1 cell membranes, 1 nM [3H]-DAMGO, read-out: μ binding

Human α2δ-1 subunit of Cav2.2 calcium channel, sequence (P54289 25-1103): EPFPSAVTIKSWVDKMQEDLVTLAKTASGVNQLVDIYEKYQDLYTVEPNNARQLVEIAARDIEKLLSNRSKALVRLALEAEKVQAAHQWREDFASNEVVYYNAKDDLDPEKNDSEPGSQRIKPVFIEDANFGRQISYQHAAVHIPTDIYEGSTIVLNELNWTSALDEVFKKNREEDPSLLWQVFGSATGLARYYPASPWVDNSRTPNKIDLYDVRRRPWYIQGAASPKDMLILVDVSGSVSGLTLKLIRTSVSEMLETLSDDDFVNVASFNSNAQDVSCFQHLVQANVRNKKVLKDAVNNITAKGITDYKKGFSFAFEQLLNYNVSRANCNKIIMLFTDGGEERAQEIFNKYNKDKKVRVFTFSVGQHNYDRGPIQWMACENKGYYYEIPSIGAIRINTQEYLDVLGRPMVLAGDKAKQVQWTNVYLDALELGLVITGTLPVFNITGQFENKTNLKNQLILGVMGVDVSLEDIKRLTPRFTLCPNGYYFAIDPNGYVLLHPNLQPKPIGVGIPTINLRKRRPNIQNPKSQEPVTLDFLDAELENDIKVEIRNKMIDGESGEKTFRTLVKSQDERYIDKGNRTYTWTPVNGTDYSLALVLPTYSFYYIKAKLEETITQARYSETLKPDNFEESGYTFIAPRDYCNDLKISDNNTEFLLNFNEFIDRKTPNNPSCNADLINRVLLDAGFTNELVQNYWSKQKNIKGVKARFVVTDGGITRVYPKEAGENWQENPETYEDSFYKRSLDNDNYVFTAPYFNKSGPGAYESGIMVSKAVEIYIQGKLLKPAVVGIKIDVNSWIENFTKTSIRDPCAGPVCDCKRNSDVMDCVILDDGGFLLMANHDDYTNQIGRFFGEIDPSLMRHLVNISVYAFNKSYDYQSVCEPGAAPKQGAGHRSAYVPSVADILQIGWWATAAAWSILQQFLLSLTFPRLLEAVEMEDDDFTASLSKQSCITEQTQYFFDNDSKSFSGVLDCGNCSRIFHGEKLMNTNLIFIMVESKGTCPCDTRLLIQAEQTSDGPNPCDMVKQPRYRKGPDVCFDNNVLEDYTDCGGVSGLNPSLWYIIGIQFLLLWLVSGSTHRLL
T1 sequence (P35372 whole entry): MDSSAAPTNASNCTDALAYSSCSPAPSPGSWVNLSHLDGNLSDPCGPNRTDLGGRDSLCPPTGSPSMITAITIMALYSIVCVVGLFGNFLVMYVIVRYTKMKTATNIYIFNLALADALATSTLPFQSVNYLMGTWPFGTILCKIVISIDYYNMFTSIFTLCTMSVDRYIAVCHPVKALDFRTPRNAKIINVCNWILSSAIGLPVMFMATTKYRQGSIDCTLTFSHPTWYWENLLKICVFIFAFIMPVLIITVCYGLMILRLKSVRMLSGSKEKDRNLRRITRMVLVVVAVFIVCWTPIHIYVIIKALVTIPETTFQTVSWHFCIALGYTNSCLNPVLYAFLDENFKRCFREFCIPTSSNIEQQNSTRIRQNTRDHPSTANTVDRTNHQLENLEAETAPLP

SMILES | Ki [1, 2] | Ki (human μ-opioid receptor; [3]) | Ki [1] | Ki (human μ-opioid receptor)
COc1ccc(Cc2cc(CN)nn2Cc2ccc(Cl)cc2)cc1 [Example 12, [1-(4-Chlorobenzyl)-5-(4-methoxybenzyl)-1H-pyrazol-3-yl]methanamine] | 500 to 3000 nM | > 500 nM |  | 
CCOc1ccc(-n2nc(CN)cc2Cc2ccc(O)cc2)c(Cl)c1 [Example 7, 4-{[3-(Aminomethyl)-1-(2-chloro-4-ethoxyphenyl)-1H-pyrazol-5-yl]methyl}phenol] |  |  | 500 to 3000 nM | < 100 nM
CNCc1cc(Cc2ccc(OC)cc2)n(-c2ccc(Cl)cc2Cl)n1 [Example 22, 1-[1-{2,4-Dichlorophenyl)-5-(4-methoxybenzyl)-1H-pyrazol-3-yl]-N-methylmethanamine] | 3000 to 5000 nM | > 500 nM |  | 
CCC(N)c1cc(Cc2ccc(OC)cc2)n(-c2ccc(Cl)cc2Cl)n1 (stereo not drawn) [Example 32, 1-[1-(2,4-Dichlorophenyl)-5-(4-methoxybenzyl)-1H-pyrazol-3-yl]propan-1-amine] | > 5000 nM | > 500 nM |  | 
COc1ccc(Cc2cc(CN)nn2Cc2ccccc2)cc1 [Example 13, [1-Benzyl-5-(4-methoxybenzyl)-1H-pyrazol-3-yl]methanamine] | 500 to 3000 nM | > 500 nM |  | 
CC(N)c1cc(Cc2ccc(O)c(F)c2)n(-c2ccc(Cl)cc2Cl)n1 (stereo in doubt) [Example 63, (S)-4-{[3-(1-Aminoethyl)-1-(2,4-dichlorophenyl)-1H-pyrazol-5-yl]methyl}-2-fluorophenol] |  |  | > 5000 nM | > 500 nM
CCNCc1cc(Cc2ccc(O)cc2)n(CC(C)C)n1 [Example 50, 4-({3-[{Ethylamino)methyl]-1-isobutyl-1H-pyrazol-5-yl}methyl)phenol] | 3000 to 5000 nM | > 500 nM |  | 
NCc1cc(Cc2ccc(Nc3nccs3)cc2)n(-c2ccc(Cl)cc2Cl)n1 [Example 74, N-(4-{[3-(Aminomethyl)-1-(2,4-dichlorophenyl)-1H-pyrazol-5-yl]methyl}phenyl)thiazol-2-amine] | 500 to 3000 nM | > 500 nM |  | 
NCc1cc(Cc2ccc(O)cc2)n(-c2ccccn2)n1 [Example 43, 4-{[3-(Aminomethyl)-1-(pyridin-2-yl)-1H-pyrazol-5-yl]methyl}phenol] | > 5000 nM | > 500 nM |  | 
COc1ccc(Cc2cc(CN)nn2-c2ccc(Cl)cc2Cl)cc1 [Example 1, [1-(2,4-Dichlorophenyl)-5-(4-methoxybenzyl)-1H-pyrazol-3yl]methanamine] |  |  | < 500 nM | 100 to 500 nM
COc1ccc(Cc2cc(CN)nn2-c2ccc(Cl)cc2)cc1 [Example 3, [1-(4-Chlorophenyl)-5-(4-methoxybenzyl)-1H-pyrazol-3-yl]methanamine] | 3000 to 5000 nM | > 500 nM |  | 
CC(C)(N)c1cc(Cc2ccc(O)c(F)c2)n(-c2ccc(Cl)cc2Cl)n1 [Example 56, 4-{[3-(2-Aminopropan-2-yl)-1-(2,4-dichlorophenyl)-1H-pyrazol-5-yl]methyl}-2-fluorophenol] |  |  | 3000 to 5000 nM | < 100 nM
COc1ccc(Cc2cc(CN)nn2Cc2ccccc2Cl)cc1 [Example 14, [1-(2-Chlorobenzyl)-5-(4-methoxybenzyl)-1H-pyrazol-3-yl]methanamine] | 500 to 3000 nM | > 500 nM |  | 
CC(N)c1cc(Cc2ccc(O)cc2)n(CCc2ccccc2)n1 (stereo not drawn) [Example 67, 4-{[3-(1-Aminoethyl)-1-phenethyl-1H-pyrazol-5-yl]methyl}phenol] | > 5000 nM | > 500 nM |  | 
CC(N)c1cc(Cc2ccc(O)cc2)n(-c2ccc(Cl)cc2Cl)n1 (stereo not drawn) [Example 51, 4-{[3-(1-Aminoethyl)-1-(2,4-dichlorophenyl)-1H-pyrazol-5-yl]methyl}phenol] |  |  | < 500 nM | < 100 nM
NC(CO)c1cc(Cc2ccc(O)cc2)n(-c2ccc(Cl)cc2Cl)n1 (stereo not drawn) [Example 71, 4-{[3-(1-Amino-2-hydroxyethyl)-1-(2,4-dichlorophenyl)-1H-pyrazol-5-yl]methyl}phenol] |  |  | > 5000 nM | 100 to 500 nM
COc1ccc(Cc2cc(CN(C)C)nn2-c2ccc(Cl)cc2Cl)cc1 [Example 21, 1-[1-(2,4-Dichlorophenyl)-5-(4-methoxybenzyl)-1H-pyrazol-3-yl]-N,N-dimethylmethanamine] | 3000 to 5000 nM | > 500 nM |  | 
COc1ccc(Cc2cc(CN)nn2C(C)c2ccccc2)cc1 (stereo not drawn) [Example 16, [5-(4-Methoxybenzyl)-1-(1-phenylethyl)-1H-pyrazol-3-yl]methanamine] | 500 to 3000 nM | > 500 nM |  | 

SMILES | Ki [1, 2] | Ki (human μ-opioid receptor; [3]) | Ki [1] | Ki (human μ-opioid receptor)
C[C@@H](N)c1cc(Cc2ccc(O)cc2)n(-c2ccc(Cl)cc2Cl)n1 [Example 62, (R)-4-{[3-(1-Aminoethyl)-1-(2,4-dichlorophenyl)-1H-pyrazol-5-yl]methyl}phenol] |  |  | 500 to 3000 nM | < 100 nM
COc1ccc(C(C)(C)c2cc(C(C)N)nn2-c2ccc(Cl)cc2Cl)cc1 (stereo not drawn) [Example 33, 1-[1-(2,4-Dichlorophenyl)-5-(2-(4-methoxyphenyl)propan-2-yl)-1H-pyrazol-3-yl]ethanamine] | > 5000 nM | > 500 nM |  | 
NCc1cc(Cc2ccccc2)n(-c2cccc(O)c2)n1 [Example 36, 3-[3-(Aminomethyl)-5-benzyl-1H-pyrazol-1-yl]phenol] | 3000 to 5000 nM | > 500 nM |  | 
COc1ccc(-n2nc(CN)cc2Cc2ccccc2)cc1 [Example 10, [5-Benzyl-1-(4-methoxyphenyl)-1H-pyrazol-3-yl]methanamine] | 500 to 3000 nM | > 500 nM |  | 
CCC(CN)c1cc(Cc2ccc(O)cc2)n(-c2ccc(Cl)cc2Cl)n1 (stereo not drawn) [Example 60, 4-{[3-(1-Aminobutan-2-yl)-1-(2,4-dichlorophenyl)-1H-pyrazol-5-yl]methyl}phenol] |  |  | > 5000 nM | < 100 nM
COc1ccc(-n2nc(C(C)N)cc2Cc2ccc(O)cc2)c(Cl)c1 (stereo not drawn) [Example 27, 4-{[3-(1-Aminoethyl)-1-(2-chloro-4-methoxyphenyl)-1H-pyrazol-5-yl]methyl}phenol] |  |  | < 500 nM | < 100 nM
COc1cc(Cl)ccc1-n1nc(C(C)N)cc1Cc1ccc(O)cc1 (stereo not drawn) [Example 29, 4-{[3-(1-Aminoethyl)-1-(4-chloro-2-methoxyphenyl)-1H-pyrazol-5-yl]methyl}phenol] | > 5000 nM | > 500 nM |  | 
C[C@H](N)c1cc(Cc2ccc(O)cc2)n(-c2ccc(Cl)cc2Cl)n1 [Example 61, (S)-4-{[3-(1-Aminoethyl)-1-(2,4-dichlorophenyl)-1H-pyrazol-5-yl]methyl}phenol] |  |  | < 500 nM | < 100 nM
NCc1cc(Cc2ccccc2)n(-c2ccc(Cl)cc2Cl)n1 [Example 9, [5-Benzyl-1-(2,4-dichlorophenyl)-1H-pyrazol-3-yl]methanamine] | 500 to 3000 nM | > 500 nM |  | 
CC(N)c1cc(Cc2ccc(O)c(F)c2)n(-c2ccc(Cl)cc2Cl)n1 (stereo not drawn) [Example 52, 4-{[3-(1-Aminoethyl)-1-(2,4-dichlorophenyl)-1H-pyrazol-5-yl]methyl}-2-fluorophenol] |  |  | < 500 nM | < 100 nM
NCc1cc(Cc2ccccc2)n(-c2ccc(O)cc2)n1 [Example 35, 4-[3-(Aminomethyl)-5-benzyl-1H-pyrazol-1-yl]phenol] | 3000 to 5000 nM | > 500 nM |  | 
COc1ccc(Cl)c(-n2nc(C(C)N)cc2Cc2ccc(O)cc2)c1 (stereo not drawn) [Example 28, 4-{[3-(1-Aminoethyl)-1-(2-chloro-5-methoxyphenyl)-1H-pyrazol-5-yl]methyl}phenol] | > 5000 nM | > 500 nM |  | 
COc1ccc(Cc2cc(CN)nn2-c2ccc(OC)cc2Cl)cc1 [Example 4, [1-(2-Chloro-4-methoxyphenyl)-5-(4-methoxybenzyl)-1H-pyrazol-3-yl]methanamine] |  |  | 500 to 3000 nM | 100 to 500 nM
CCNCc1cc(Cc2ccc(OC)cc2)n(CC(C)C)n1 [Example 23, N-{[1-Isobutyl-5-(4-methoxybenzyl)-1H-pyrazol-3-yl]methyl}ethanamine] | 500 to 3000 nM | > 500 nM |  | 
NC(CN1CCOCC1)c1cc(Cc2ccc(O)cc2)n(-c2ccc(Cl)cc2Cl)n1 (stereo not drawn) [Example 73, 4-{[3-(1-Amino-2-morpholinoethyl)-1-(2,4-dichlorophenyl)-1H-pyrazol-5-yl]methyl}phenol] | > 5000 nM | > 500 nM |  | 
CC(N)c1cc(Cc2ccc(O)cc2)n(C2CCCCC2)n1 (stereo not drawn) [Example 65, 4-{[3-(1-Aminoethyl)-1-cyclohexyl-1H-pyrazol-5-yl]methyl}phenol] |  |  | < 500 nM | > 500 nM
COc1ccc(Cc2cc(C(C)N)nn2-c2ccc(Cl)cc2Cl)cc1 (stereo not drawn) [Example 24, 1-[1-(2,4-Dichlorophenyl)-5-(4-methoxybenzyl)-1H-pyrazol-3-yl]ethanamine] |  |  | 500 to 3000 nM | 100 to 500 nM
CC(c1ccccc1)n1nc(CN)cc1Cc1ccc(O)cc1 (stereo not drawn) [Example 49, 4-{[3-(Aminomethyl)-1-(1-phenylethyl)-1H-pyrazol-5-yl]methyl}phenol] | > 5000 nM | > 500 nM |  | 
